In patent US20260263473A1 (priority 2023, published 2026):

Assay: Blood levels of the actives after the three-compartment transdermal patch in a COVID patient
Format: in vivo, human
Settings: for time at which blood levels rose to a peak: transdermal patch (48 mg ivermectin, 300 mg doxycycline, 50 mg zinc chelate; gelling agent and water), adhered to left side of chest for 3 days
Experimental: A patient with diabetes and hypertension had acquired COVID as proven by PCR. […] They were treated with a transdermal patch containing higher dose of active antiviral drugs including 48 mg of ivermectin, 300 mg of doxycycline, and 50 mg of zinc chelate. The transdermal patch had three separate compartments, each compartment containing one of ivermectin, doxycycline and zinc chelate. Each active ingredient was formulated with a gelling agent and water. The patch remained adhered to the left side of the chest for 3 days. Blood levels of each of the ivermectin, doxycycline and zinc chelate rose to a peak at 10 hrs, The patient's cough continued but slowly resolved and they were not breathless. […] The patient oxygen saturation improved within 2 days with oximetry rising to 96%.

[1] = orally treated patients (comparison)
[2] = transdermal patch, adhered to chest for 3 days, one patient

Row | Compound | persistence of blood levels (area under the curve) [1] [h] | time at which blood levels rose to a peak (one patient) [h] | area under the curve compared with single oral medications [2] | persistence of blood levels (area under the curve) [2] [h]
1 | C[C@H]1c2cccc(O)c2C(=O)C2=C(O)[C@]3(O)C(=O)C(C(N)=O)=C(O)[C@@H](N(C)C)[C@@H]3[C@@H](O)[C@@H]21 [doxycycline] | 48 | 10 | greater than that of single oral medications | 140
2 | ivermectin | 48 | 10 | greater than that of single oral medications | 140
